Test results reported in ChEMBL document CHEMBL6096696, “Structure-Activity Relationship Studies of an Autophagy Inhibitor That Targets the ATG14L-Beclin1 Protein-Protein Interaction Reveal Modifications That Improve Potency and Solubility and Maintain Selectivity” (J Med Chem, 2025).
Converted amounts (≈) assume the structure as drawn.

Tests used:
[1] = Selectivity ratio of inhibition of C-terminal Nano-luc tagged UVRAG/C-terminal Halo-tagged Beclin 1 (unknown origin) PPI tranfected with HEK293T cells to inhibition of C-terminal Nano-luc tagged ATG14L/C-terminal Halo-tagged Beclin 1 (unknown origin) PPI tranfected with HEK293T cells
[2] = system: HEK293T; assay: Inhibition of C-terminal Nano-luc tagged UVRAG/C-terminal Halo-tagged Beclin 1 (unknown origin) PPI tranfected with HEK293T cells using […] at 100 uM incubated for 24 hrs by […] assay relative to control; format: cell-based; details: Homo sapiens, values are per cent of control
[3] = Kinetic aqueous solubility of compound in PBS at pH 7.4 by absorbance based analysis; format: physicochemical; details: read-out: Kinetic_solubility
[4] = system: HEK293T; assay: Inhibition of C-terminal Nano-luc tagged ATG14L/C-terminal Halo-tagged Beclin 1 (unknown origin) PPI tranfected with HEK293T cells using […] at 100 uM incubated for 24 hrs by […] assay relative to control; format: cell-based; details: Homo sapiens, values are per cent of control

SMILES | Selectivity ratio [1] | residual binding, % of control [2] | solubility kinetic [3] | residual binding, % of control [4]
O=C1COc2ccc(-c3ccccc3F)cc2N1Cc1noc(C2CCC2)n1 | 1.24 | 98% | > 100 µM | 79%
O=C1COc2ccc(-c3ccc(F)cc3F)cc2N1Cc1noc(C2CCC2)n1 | 1.14 | 100% | > 100 µM | 87.9%
O=C1COc2ccc(Nc3ccccc3Cl)cc2N1Cc1noc(C2CCC2)n1 | 1.11 | 104% | > 100 µM | 93.6%
Cc1cccc(NS(=O)(=O)c2ccc3c(c2)OCC(=O)N3Cc2ccccn2)c1C | – | – | > 100 µM | 112%
CCCN1C(=O)COc2ccc(NC(=O)c3cccc([N+](=O)[O-])c3)cc21 | – | – | > 100 µM | 104%
Cc1ccccc1-c1ccc2c(c1)N(Cc1noc(C3CCC3)n1)C(=O)CO2 | 1.01 | 110% | > 100 µM | 109%
CCCN1C(=O)COc2ccc(NS(=O)(=O)c3cccc(OC)c3)cc21 | – | – | > 100 µM | 99.8%
Cc1cccc(NS(=O)(=O)c2ccc3c(c2)N(CC(C)O)C(=O)CO3)c1C (configuration not stated) | – | – | > 100 µM | 107%
CCCN1C(=O)COc2ccc(S(=O)(=O)Nc3cccc(Cl)c3C)cc21 | – | – | > 100 µM | 131%
O=C1COc2ccc(-c3ccccc3)cc2N1Cc1noc(C2CCC2)n1 | 1.06 | 105% | > 100 µM | 98.7%
Cc1cccc(-c2ccc3c(c2)N(Cc2noc(C4CCC4)n2)C(=O)CO3)c1 | 1.13 | 102% | > 100 µM | 90.8%
Cc1cccc(NS(=O)(=O)c2ccc3c(c2)OCC(=O)N3Cc2ccco2)c1C | – | – | > 100 µM | 109%
CCCN1C(=O)COc2ccc(NS(=O)(=O)c3ccccc3)cc21 | – | – | > 100 µM | 89.2%
CCCN1C(=O)COc2ccc(S(=O)(=O)Nc3cccc(Cl)c3)cc21 | – | – | > 100 µM | 145%
CCCN1C(=O)COc2ccc(NS(=O)(=O)c3ccc(F)cc3C)cc21 | – | – | > 100 µM | 99.8%
CCCN1C(=O)COc2ccc(NS(=O)(=O)c3cccc(C)c3)cc21 | – | – | > 100 µM | 96.2%
CCCN1C(=O)COc2ccc(S(=O)(=O)Nc3ccccc3F)cc21 | – | – | > 100 µM | 147%
Cc1cccc(Nc2ccc3c(c2)N(Cc2noc(C4CCC4)n2)C(=O)CO3)c1Cl | 1.13 | 102% | 100 µM (≈ 42.5 µg/mL) | 89.8%
CCCN1C(=O)COc2ccc(NS(=O)(=O)c3cccc(C)c3C)cc21 | – | – | > 100 µM | 83.2%
CCCN1C(=O)COc2ccc(S(=O)(=O)Nc3ccccc3)cc21 | – | – | > 100 µM | 134%
CCCN1C(=O)COc2ccc(S(=O)(=O)NCc3ccccc3)cc21 | – | – | > 100 µM | 116%
COc1ccccc1-c1ccc2c(c1)N(Cc1noc(C3CCC3)n1)C(=O)CO2 | 1.06 | 104% | > 100 µM | 98.3%
CCCN1C(=O)COc2ccc(NS(=O)(=O)c3cccc(C(F)(F)F)c3)cc21 | – | – | > 100 µM | 80%
CCCN1C(=O)COc2ccc(S(=O)(=O)Nc3cccc(N4CCOCC4)c3)cc21 | – | – | > 100 µM | 108%
Cc1cccc(NS(=O)(=O)c2ccc3c(c2)N(CC2CCCCC2)C(=O)CO3)c1C | – | – | > 100 µM | 106%

SMILES | Selectivity ratio [1] | residual binding, % of control [2] | solubility kinetic [3] | residual binding, % of control [4]
Cc1c(Cl)cccc1Nc1ccc2c(c1)N(Cc1noc(C3CCC3)n1)C(=O)CO2 | 1.4 | 118% | 100 µM (≈ 42.5 µg/mL) | 83.9%
CCCN1C(=O)COc2ccc(NC(=O)c3ccccc3)cc21 | – | – | > 100 µM | 106%
CCCN1C(=O)COc2ccc(NS(=O)(=O)c3ccc(Cl)cc3Cl)cc21 | – | – | > 100 µM | 101%
O=C1COc2ccc(-c3cccc(OC(F)(F)F)c3)cc2N1Cc1noc(C2CCC2)n1 | 1.05 | 110% | > 100 µM | 105%
CCCN1C(=O)COc2ccc(NS(=O)(=O)c3ccccc3Br)cc21 | – | – | > 100 µM | 88.1%
CCCN1C(=O)COc2ccc(S(=O)(=O)N3CCCCC3)cc21 | – | – | > 100 µM | 109%
Cc1cccc(NS(=O)(=O)c2ccc3c(c2)OCC(=O)N3Cc2ccccc2)c1C | – | – | 50 µM (≈ 21.1 µg/mL) | 105%
CCCN1C(=O)COc2ccc(Nc3ccccc3)cc21 | 1.54 | 116% | > 100 µM | 75.8%
CC(C)c1ccccc1Nc1ccc2c(c1)N(Cc1noc(C3CCC3)n1)C(=O)CO2 | 1.27 | 105% | > 100 µM | 82.4%
CCCN1C(=O)COc2ccc(NC(=O)c3ccccc3Br)cc21 | – | – | > 100 µM | 119%
CCCN1C(=O)COc2ccc(NC(=O)c3cccc(C)c3C)cc21 | – | – | > 100 µM | 92%
CCCN1C(=O)COc2ccc(S(=O)(=O)Nc3ccccc3Br)cc21 | – | – | > 100 µM | 132%
CCCN1C(=O)COc2ccc(NS(=O)(=O)c3cccc(Br)c3)cc21 | – | – | > 100 µM | 101%
CCCN1C(=O)COc2ccc(NC(=O)Cc3ccccc3)cc21 | – | – | > 100 µM | 127%
CCCCN1C(=O)COc2ccc(S(=O)(=O)Nc3cccc(C)c3C)cc21 | – | – | > 100 µM | 110%
Cc1cccc(NS(=O)(=O)c2ccc3c(c2)N(C)C(=O)CO3)c1C | – | – | > 100 µM | 106%
CCCN1C(=O)COc2ccc(NS(=O)(=O)c3cc(OC)ccc3OC)cc21 | – | – | > 100 µM | 103%
CCCN1C(=O)COc2ccc(NC(=O)c3ccc(Cl)cc3Cl)cc21 | – | – | 50 µM (≈ 19 µg/mL) | 109%
CCCN1C(=O)COc2ccc(S(=O)(=O)Nc3c(C)cccc3C)cc21 | – | – | > 100 µM | 105%
CCCN1C(=O)COc2ccc(NS(=O)(=O)c3c(C(C)C)cc(C(C)C)cc3C(C)C)cc21 | – | – | > 100 µM | 59.9%
CCCN1C(=O)COc2ccc(NC(=O)c3cccc(Br)c3)cc21 | – | – | > 100 µM | 112%
CCCN1C(=O)COc2ccc(S(=O)(=O)N3CCOCC3)cc21 | – | – | > 100 µM | 110%
Cc1cccc(NS(=O)(=O)c2ccc3c(c2)OCC(=O)N3CCc2ccccc2)c1C | – | – | > 100 µM | 103%
CCCN1C(=O)COc2ccc(S(=O)(=O)Nc3cc(OC)ccc3OC)cc21 | – | – | > 100 µM | 107%
